# Molecular target: T1, human C1r (Homo sapiens, UniProt P00736)
# T1 construct: Recombinant human C1r (375–705 aa) fused with both the N-terminal IgG signal peptide; IgG signal peptide (N); His tag (C); made in house; host or cells: HEK293 cells
# T1 sequence (P00736 375-705): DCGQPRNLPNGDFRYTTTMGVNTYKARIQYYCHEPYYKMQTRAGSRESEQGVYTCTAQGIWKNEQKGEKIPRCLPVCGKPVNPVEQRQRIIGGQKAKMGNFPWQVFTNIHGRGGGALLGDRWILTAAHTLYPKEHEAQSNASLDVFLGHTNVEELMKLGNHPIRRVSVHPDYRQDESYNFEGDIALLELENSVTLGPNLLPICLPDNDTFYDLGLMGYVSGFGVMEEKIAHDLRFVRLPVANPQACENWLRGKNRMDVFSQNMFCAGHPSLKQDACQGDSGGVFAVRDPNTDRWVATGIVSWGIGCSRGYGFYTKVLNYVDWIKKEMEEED
# Test: Human C1r enzyme assay
# Type: biochemical
# Conditions: supplementary csv
# From the text: Recombinant human C1r (375–705 aa) fused with both the N-terminal IgG signal peptide and the C-terminal His tag was expressed in HEK293 cells and purified. Human C1r assay conditions were the same as for human C1s, except that the enzyme solution concentration was 3 nmol/L and the substrate peptide was 250 μmol/L Z-Gly-Arg-SBzl (custom synthesis from Peptide Institute, Osaka, Japan) instead of Z-Lys-SBzl.
structure (smiles),measurement,value
"Cc1cc([C@H]2CN(c3cc(F)c4c(N)nncc4c3)CCN2c2cccc(F)c2)no1 [Compound (R)-8, 8-Fluoro-6-[(3R)-4-(3-fluorophenyl)-3-(5-methyl-1,2-oxazol-3-yl)piperazin-1-yl]phthalazin-1-amine]",IC50,> 30 µM
